Results on 9 molecules are retold here after ChEMBL document CHEMBL1126371, “Indazole and indoline as aromatic bioisosteres in the imidazole class of serotonin 5-HT3 receptor antagonists” (Bioorg Med Chem Lett, 1992).

Test [1] has as its system Rattus norvegicus. As to the kind of experiment: Dose required for inhibition of bradycardia induced by a submaximal dose (iv) of 5-HT in 6 rats. The format is functional. The conditions noted are these: read-out: ID50 (the source's name).
In test [2] the test system is Rattus norvegicus. As to the kind of experiment: Dose required for inhibition of bradycardia induced by a submaximal dose (iv) of 5-HT in 5 rats. It is filed as functional. The conditions noted are these: read-out: ID50 (the source's name).
The test system of test [3] is Rattus norvegicus. As to the kind of experiment: Time required to achieve 50% recovery of Bezold-Jarisch reflex in 9 rats at a dose of 6 ug/kg, iv. It is filed as functional.
The subject of test [4] is Rattus norvegicus. As to the kind of experiment: Dose required for inhibition of bradycardia induced by a submaximal dose (iv) of 5-HT in 8 rats. The note with it: read-out: ID50 (the source's name). The format is functional.
In test [5] the test system is Rattus norvegicus. As to the kind of experiment: Dose required for inhibition of bradycardia induced by a submaximal dose (iv) of 5-HT in 3 rats. It is filed as functional. The note with it: read-out: ID50 (the source's name).
The target in test [6] is T1, 5-hydroxytryptamine receptor 1A (Rattus norvegicus) (UniProt P19327).
T1 sequence (whole entry): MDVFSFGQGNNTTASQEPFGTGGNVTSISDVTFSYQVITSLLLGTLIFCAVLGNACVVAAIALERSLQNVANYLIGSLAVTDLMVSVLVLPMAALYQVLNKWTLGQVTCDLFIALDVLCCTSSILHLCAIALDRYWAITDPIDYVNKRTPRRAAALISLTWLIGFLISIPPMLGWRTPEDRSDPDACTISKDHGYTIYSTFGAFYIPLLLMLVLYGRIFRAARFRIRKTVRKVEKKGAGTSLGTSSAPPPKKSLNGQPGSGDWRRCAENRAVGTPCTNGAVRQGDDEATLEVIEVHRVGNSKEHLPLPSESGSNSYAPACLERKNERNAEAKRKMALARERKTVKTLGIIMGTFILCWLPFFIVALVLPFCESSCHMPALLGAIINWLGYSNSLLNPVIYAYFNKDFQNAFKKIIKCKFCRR
As to the kind of experiment: Tested for the effect on binding at 5-hydroxytryptamine 1A receptor; No activity.

Test [7] has as its target T2, 5-hydroxytryptamine receptor 2C (Rattus norvegicus) (UniProt P08909).
T2 sequence (whole entry): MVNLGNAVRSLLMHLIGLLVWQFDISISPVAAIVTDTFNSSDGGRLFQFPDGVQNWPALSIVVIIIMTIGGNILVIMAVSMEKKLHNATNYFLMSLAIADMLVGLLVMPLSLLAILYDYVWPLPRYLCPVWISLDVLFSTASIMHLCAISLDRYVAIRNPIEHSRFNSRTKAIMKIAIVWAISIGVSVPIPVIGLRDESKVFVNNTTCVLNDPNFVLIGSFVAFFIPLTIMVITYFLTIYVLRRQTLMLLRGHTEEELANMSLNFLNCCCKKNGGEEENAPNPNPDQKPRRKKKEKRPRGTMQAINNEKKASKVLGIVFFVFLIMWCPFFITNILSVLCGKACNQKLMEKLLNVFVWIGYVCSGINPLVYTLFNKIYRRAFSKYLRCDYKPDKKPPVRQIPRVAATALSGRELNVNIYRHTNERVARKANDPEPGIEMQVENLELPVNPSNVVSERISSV
Kind of test: Tested for the effect on binding at 5-hydroxytryptamine 1C receptor; No activity.

In test [8] the target is Serotonin 2 (5-HT2) receptor (Rattus norvegicus) (UniProt P30994+P08909+P14842). As to the kind of experiment: Tested for the effect on binding at 5-hydroxytryptamine 2 receptor; No activity. The format is protein assay.
Chain of Serotonin 2 (5-HT2) receptor (Rattus norvegicus) (P14842 whole entry, looked up, one chain of several): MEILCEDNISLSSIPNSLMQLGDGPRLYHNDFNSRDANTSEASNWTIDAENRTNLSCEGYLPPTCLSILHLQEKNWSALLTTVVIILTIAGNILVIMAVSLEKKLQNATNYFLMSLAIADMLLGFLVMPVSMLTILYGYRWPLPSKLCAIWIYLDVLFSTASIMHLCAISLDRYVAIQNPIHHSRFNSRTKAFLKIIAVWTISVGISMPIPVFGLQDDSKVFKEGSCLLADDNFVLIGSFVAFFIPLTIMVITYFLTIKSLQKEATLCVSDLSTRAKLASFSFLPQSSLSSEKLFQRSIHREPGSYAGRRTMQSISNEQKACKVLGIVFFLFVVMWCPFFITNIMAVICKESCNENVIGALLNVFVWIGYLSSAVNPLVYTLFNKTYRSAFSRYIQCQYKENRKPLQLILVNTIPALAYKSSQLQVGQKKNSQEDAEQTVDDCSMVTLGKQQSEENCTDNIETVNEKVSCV
Chain of Serotonin 2 (5-HT2) receptor (Rattus norvegicus) (P30994 whole entry, looked up, one chain of several): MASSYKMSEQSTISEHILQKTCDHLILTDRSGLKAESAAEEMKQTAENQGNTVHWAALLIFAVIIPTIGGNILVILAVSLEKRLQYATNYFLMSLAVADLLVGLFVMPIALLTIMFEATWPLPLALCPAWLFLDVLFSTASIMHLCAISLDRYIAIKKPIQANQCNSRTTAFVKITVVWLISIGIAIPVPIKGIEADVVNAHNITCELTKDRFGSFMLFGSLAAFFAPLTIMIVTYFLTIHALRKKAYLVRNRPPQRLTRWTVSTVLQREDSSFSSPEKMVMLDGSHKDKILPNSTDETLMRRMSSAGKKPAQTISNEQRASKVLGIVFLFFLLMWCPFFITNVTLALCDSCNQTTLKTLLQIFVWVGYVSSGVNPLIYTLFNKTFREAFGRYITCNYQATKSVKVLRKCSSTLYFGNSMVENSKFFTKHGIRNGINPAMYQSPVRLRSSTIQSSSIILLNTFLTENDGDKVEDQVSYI
For test [9], the target named is 5-hydroxytryptamine receptor 1D (Rattus norvegicus) (UniProt P28565). Kind of test: Tested for the effect on binding at 5-hydroxytryptamine 1D receptor; No activity.
Chain of 5-hydroxytryptamine receptor 1D (Rattus norvegicus) (P28565 whole entry): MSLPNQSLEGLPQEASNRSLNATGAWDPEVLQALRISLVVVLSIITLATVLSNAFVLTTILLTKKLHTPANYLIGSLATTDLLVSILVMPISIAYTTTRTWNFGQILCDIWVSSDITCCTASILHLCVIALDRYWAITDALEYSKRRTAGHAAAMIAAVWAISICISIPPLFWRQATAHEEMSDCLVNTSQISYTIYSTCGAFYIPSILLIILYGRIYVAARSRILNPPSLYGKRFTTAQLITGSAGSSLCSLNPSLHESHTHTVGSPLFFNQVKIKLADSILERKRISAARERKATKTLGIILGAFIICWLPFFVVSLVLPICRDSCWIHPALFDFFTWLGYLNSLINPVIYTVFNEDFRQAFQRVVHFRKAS
Test [10] has as its target Serotonin 3 (5-HT3) receptor. As to the kind of experiment: Tested for antagonistic activity on 5-hydroxytryptamine 3 receptor mediated effects of 5-HT in guinea pig isolated ileum. The format is functional, tissue-based, Cavia porcellus.
Test [11] has as its target 5-hydroxytryptamine receptor 4 (Rattus norvegicus) (UniProt Q62758). Kind of test: Tested for the effect on binding at 5-hydroxytryptamine 4 receptor; No activity.
The test system of test [12] is Mustela putorius furo. Kind of test: Reduction in the latency period to the first episode in ferret at a dose of 0.01 mg/kg, po. The format is functional.
Test [13] relates to Mustela putorius furo. Kind of test: Reduction in the latency period to the first episode in ferret at a dose of 0.5 mg/kg, po. It is filed as functional.
Test [14] concerns Mustela putorius furo. Kind of test: Reduction in the number of episodes of emesis in 4 ferrets at a dose of 0.5 mg/kg, po. It is filed as functional.
Test [15] has as its system Mustela putorius furo. Kind of test: Reduction in the number of episodes of emesis in ferrets at a dose of 0.01 mg/kg, po. The format is functional.
The test system of test [16] is Rattus norvegicus. Kind of test: Time required to achieve 50% recovery of Bezold-Jarisch reflex in 4 rats at a dose of 6 ug/kg, iv. The format is functional.
Test [17] deals with Rattus norvegicus. As to the kind of experiment: Dose required for inhibition of bradycardia induced by a submaximal dose (iv) of 5-HT in 4 rats. It is filed as functional. The note with it: read-out: ID50 (the source's name).
Test [18] relates to Rattus norvegicus. Kind of test: Percent maximum inhibition against Bezold-Jarisch reflex in 4 rats at a dose of 6 ug/kg, iv, after 5 min. It is filed as functional.
In test [19] the target is Alpha-2 adrenergic receptor (Rattus norvegicus). As to the kind of experiment: Affinity at Alpha-2 adrenergic receptor in rat brain.
Test [20] has as its system Rattus norvegicus. Kind of test: Dose required for inhibition of bradycardia induced by a submaximal dose (iv) of 5-HT in 7 rats. The format is functional. The note with it: read-out: ID50 (the source's name).
Test [21] deals with Rattus norvegicus. As to the kind of experiment: Time required to achieve 50% recovery of Bezold-Jarisch reflex in 5 rats at a dose of 6 ug/kg, iv. It is filed as functional.
For test [22], the system named is Rattus norvegicus. As to the kind of experiment: Percent maximum inhibition against Bezold-Jarisch reflex in 5 rats at a dose of 6 ug/kg, iv. It is filed as functional.

The source made the active and inactive calls. No cut-off for these calls is given here.

Chain of 5-hydroxytryptamine receptor 4 (Rattus norvegicus) (Q62758 whole entry): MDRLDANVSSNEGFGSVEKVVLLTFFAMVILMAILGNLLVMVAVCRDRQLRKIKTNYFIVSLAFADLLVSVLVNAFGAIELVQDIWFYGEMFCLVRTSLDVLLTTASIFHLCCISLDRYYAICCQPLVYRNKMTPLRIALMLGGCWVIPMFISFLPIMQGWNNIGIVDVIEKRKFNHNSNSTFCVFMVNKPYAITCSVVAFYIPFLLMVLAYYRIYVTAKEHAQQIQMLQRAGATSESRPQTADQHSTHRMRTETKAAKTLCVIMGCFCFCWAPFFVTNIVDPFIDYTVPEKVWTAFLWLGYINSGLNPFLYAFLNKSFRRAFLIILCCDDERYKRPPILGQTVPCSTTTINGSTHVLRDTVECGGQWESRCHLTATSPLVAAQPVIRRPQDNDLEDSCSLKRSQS

`Cc1[nH]cnc1CCC(=O)c1nn(C)c2ccccc12`: in the test on Rattus norvegicus [1], the ED50 came to 3.1 µg/kg.

Consider `COc1ccccc1NC(=O)CCc1c[nH]cn1`, for which, in the test with Rattus norvegicus [2], the ED50 is 35 µg/kg.

In the case of `CN1C2CCCC1CC(NC(=O)c1nn(C)c3ccccc13)C2` (centres undefined) [GRANISETRON], in the test with Rattus norvegicus [3], the Duration was 46 min.

For the molecule `COc1ccccc1NC(=O)CCc1[nH]cnc1C`, the ED50 in the test on Rattus norvegicus [2] amounted to 20 µg/kg.

Regarding `CN1C2CCC1CC(NC(=O)N1CC(C)(C)c3ccccc31)C2` (centres undefined), in the test on Rattus norvegicus [4], the ED50 stood at 0.67 µg/kg.

Take `CC1(C)CN(C(=O)CCc2c[nH]cn2)c2ccccc21`: the ED50 in the test on Rattus norvegicus [5] was 4.2 µg/kg.

The pA2 is the negative logarithm of the molar antagonist concentration that doubles the agonist concentration needed for the same response. Read a high pA2 as higher antagonist potency. Broadly, the inhibition in vivo is the share of the control response that was lost under treatment. Take `Cc1[nH]cnc1CCC(=O)N1CC(C)(C)c2ccccc21`: the outcome in test [6], in test [7], in [8], in test [9] and in test [11] was inactive. In addition, the pA2 in [10] turned out to be 8.1. For the same molecule, the Latency time was 22.5 min in the test on Mustela putorius furo [12] and 90.5 min in the test with Mustela putorius furo [13]. Moreover, the values for the Reduction in the test on Mustela putorius furo [14] and with Mustela putorius furo [15] were 1.3 and 7.7, respectively. Besides, the Duration with Rattus norvegicus [16] is listed as 66 min. Besides, in the test with Rattus norvegicus [17], the ED50 was determined as 2.2 µg/kg. The molecule further yielded an inhibition in vivo at 0.006 mg/kg in the test with Rattus norvegicus [18] of 91%. For the same molecule, in [19], the “Log Ki” value is listed as -6.2.

Turning to `COc1ccccc1NC(=O)NC1CC2CCC(C1)N2C` (centres undefined), the ED50 in the test with Rattus norvegicus [20] was determined as 2.5 µg/kg.

As to `Cc1nccn1CC1CCc2c(c3ccccc3n2C)C1=O` (centres undefined) [ONDANSETRON], the Duration with Rattus norvegicus [21] is reported as 14 min. Besides, in the test on Rattus norvegicus [17], the ED50 was found to be 3.6 µg/kg. In the test on Rattus norvegicus [22], this molecule registered an inhibition in vivo at 0.006 mg/kg of 68%.
